The assay deals with T1, Human Glucocorticoid Receptor (GR) (Homo sapiens, UniProt P04150).
T1 construct: The full length GR was diluted to a final concentration of 3.3% (0.495 mg/ml) in assay buffer
T1 sequence (P04150 1-777): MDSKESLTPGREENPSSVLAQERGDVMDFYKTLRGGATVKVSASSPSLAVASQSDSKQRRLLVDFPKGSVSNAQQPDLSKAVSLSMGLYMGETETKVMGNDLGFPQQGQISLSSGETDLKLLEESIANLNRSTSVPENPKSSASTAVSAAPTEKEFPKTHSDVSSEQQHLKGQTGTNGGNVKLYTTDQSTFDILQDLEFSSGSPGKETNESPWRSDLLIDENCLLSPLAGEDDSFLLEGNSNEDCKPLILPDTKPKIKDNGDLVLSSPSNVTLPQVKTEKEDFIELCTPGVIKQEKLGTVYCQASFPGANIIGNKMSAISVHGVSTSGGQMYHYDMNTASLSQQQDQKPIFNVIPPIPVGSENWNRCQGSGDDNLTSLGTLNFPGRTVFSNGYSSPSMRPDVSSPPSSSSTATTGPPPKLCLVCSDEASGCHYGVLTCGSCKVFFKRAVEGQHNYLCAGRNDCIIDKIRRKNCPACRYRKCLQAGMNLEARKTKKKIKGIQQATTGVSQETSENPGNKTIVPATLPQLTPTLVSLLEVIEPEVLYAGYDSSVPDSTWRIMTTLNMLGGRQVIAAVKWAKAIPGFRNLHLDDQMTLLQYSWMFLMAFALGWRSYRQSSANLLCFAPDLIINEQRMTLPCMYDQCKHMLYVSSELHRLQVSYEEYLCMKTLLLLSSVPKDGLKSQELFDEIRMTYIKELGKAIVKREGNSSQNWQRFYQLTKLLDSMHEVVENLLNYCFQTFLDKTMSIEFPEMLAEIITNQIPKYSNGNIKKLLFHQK
Put plainly: Human Glucocorticoid Receptor (GR) radioligand binding assay (3H-dexamethasone competition). The note with it: full length GR; 7 nM 3H-dexamethasone; 2 h at room temperature. The protocol: Human Glucocorticoid Receptor (GR) Assay
The radioligand GR binding assay is based on a competition assay using ^3H-labeled Dexamethasone. Dexamethasone is known to bind in the ligand binding domain of GR and compete for binding with endogenous ligands like e.g. cortisol (Necela, 2003). In the GR radioligand binding assay, test compounds were serially diluted in semi-log steps (10 concentrations) with a final concentration of 10 μM. Test compounds (1 μL) and controls (1 μL) in 100% DMSO were added to 96 Greiner V-bottom polypropylene plates. 0% control was 6.7% DMSO (final concentration in assay) and 100% control was 6.7 μM Dexamethasone.
The full length GR was diluted to a final concentration of 3.3% (0.495 mg/ml) in assay buffer (20 mM Tris-HCl, 1 mM EDTA, 10% (w/v) Glycerol, 20 mM Sodium molybdate, pH 7.4). 45 μL of GR was added to each well and the plates were incubated for 15 min at room temperature.
^3H-dexamethasone solution was diluted to a concentration of 70 nM in assay buffer (7 nM final assay concentration) and 5 μL was added to each well. The samples were mixed for 5 min using a plate shaker at 700 rpm, before incubation for 2 h at room temperature.
50 μL ice-cold charcoal solution (pH 7.4:2% Charcoal, 0.2% Dextran T70 in 20 mM Tris-HCl, 1 mM EDTA and 20 mM Sodium molybdate) was added to each well and the samples were mixed on plate shaker for 5 minutes.
The plate was then centrifuged for 1.5 min at 1500 rpm, the samples (80 μL) were is transferred from each well to a filter plate (Millipore, 0.45 μm, MHVBN45) on a vacuum manifold and then collected into new plates (Greiner, 96 well white/transparent, 655095). The filter plate was washed once with 20 μl of water and then 100 μL of scintillation liquid was added to each well and mixed by incubation on plate shaker for 5 min. Radioactivity was measured in a 1450 Microbeta Trilux Reader (Wallac) counting cpm for 2 minutes per well. The data obtained from each replicate experiment were analysed using the software ActivityBase, version 5.4.3 (ID Business Solutions Ltd) and IC50 values were calculated. Ref: Necela, B M, Cidlowski, J A, Trends Pharmacol Sci, 24: 58, 2003

A word on the IC50: it is the concentration that gives 50% inhibition. Read a high IC50 as weaker potency in that assay.

As for `C[C@H](NC(=O)C(C)(F)F)[C@H](Oc1ccc2c(cnn2-c2cccc(C(=O)NCCN3CCNC3=O)c2)c1)c1ccccc1` [Example 7, 3-[5-({(1R,2S)-2-[(2,2-difluoropropanoyl)amino]-1-phenylpropyl}oxy)-1H-indazol-1-yl]-N-[2-(2-oxoimidazolidin-1-yl)ethyl]benzamide], the IC50 came to 16.9 nM.

Consider `COc1ccc([C@@H](Oc2ccc3c(cnn3-c3cccc(C(=O)NCc4cccnc4)c3)c2)[C@H](C)NC(=O)C(C)(F)F)cn1` [Example 28, 3-(5-{[(1R,2S)-2-[(2,2-difluoropropanoyl)amino]-1-(6-methoxypyridin-3-yl)propyl]oxy}-1H-indazol-1-yl)-N-(pyridin-3-ylmethyl)benzamide], for which the IC50 is 1.39 nM.

The molecule `C[C@H](NC(=O)C(C)(F)F)[C@H](Oc1ccc2c(cnn2-c2cccc(C(=O)N3CCNC(=O)C3)c2)c1)c1ccccc1` [Example 12, 2,2-Difluoro-N-{(1S,2R)-1-methyl-2-[(1-{3-[(3-oxopiperazin-1-yl)carbonyl]phenyl}-1H-indazol-5-yl)oxy]-2-phenylethyl}propanamide] showed an IC50 of 2.54 nM.

As to `C[C@H](NC(=O)C(C)(F)F)[C@H](Oc1ccc2c(cnn2-c2cccc(C(=O)N3CC[C@@H](O)C3)c2)c1)c1ccccc1` [Example 9, 2,2-Difluoro-N-[(1S,2R)-2-{[1-(3-{[(3R)-3-hydroxypyrrolidin-1-yl]carbonyl}phenyl)-1H-indazol-5-yl]oxy}-1-methyl-2-phenylethyl]propanamide], the IC50 was 5.65 nM. This IC50 is about 2.2-fold higher than that of the molecule before.

In turn, `C[C@H](NC(=O)C(C)(F)F)[C@H](Oc1ccc2c(cnn2-c2cccc(C(=O)N3C[C@H](O)C[C@H]3C(N)=O)c2)c1)c1ccccc1` [Example 20, (4R)-1-({3-[5-({(1R,2S)-2-[(2,2-difluoropropanoyl)amino]-1-phenylpropyl}oxy)-1H-indazol-1-yl]phenyl}carbonyl)-4-hydroxy-L-prolinamide] showed an IC50 of 75.9 nM. This IC50 is about 13-fold higher than that of the molecule before.

For `C[C@H](NC(=O)C(C)(F)F)[C@H](Oc1ccc2c(cnn2-c2cccc(C(=O)NCCO)c2)c1)c1ccccc1` [Example 3, 3-[5-({(1R,2S)-2-[(2,2-difluoropropanoyl)amino]-1-phenylpropyl}oxy)-1H-indazol-1-yl]-N-(2-hydroxyethyl)benzamide], the IC50 came out at 1.69 nM.

Turning to `C[C@H](NC(=O)C(C)(F)F)[C@H](Oc1ccc2c(cnn2-c2cccc(C(=O)NCCN3C(=O)OC(C)(C)C3=O)c2)c1)c1ccccc1` [Example 14, 3-[5-({(1R,2S)-2-[(2,2-difluoropropanoyl)amino]-1-phenylpropyl}oxy)-1H-indazol-1-yl]-N-[2-(5,5-dimethyl-2,4-dioxo-1,3-oxazolidin-3-yl)ethyl]benzamide], the IC50 was determined as 40.2 nM. This IC50 lies about 24-fold higher than the previous one.

As to `C[C@H](NC(=O)C(C)(F)F)[C@H](Oc1ccc2c(cnn2-c2cccc(C(=O)NCCC(N)=O)c2)c1)c1ccccc1` [Example 19, N-(3-amino-3-oxopropyl)-3-[5-({(1R,2S)-2-[(2,2-difluoropropanoyl)amino]-1-phenylpropyl}oxy)-1H-indazol-1-yl]benzamide], the IC50 was 2.29 nM. Compared with the last molecule, the IC50 is about 18-fold lower.

Turning to `COc1ccc([C@@H](Oc2ccc3c(cnn3-c3cccc(C(=O)Nc4cccnc4)c3)c2)[C@H](C)NC(=O)C(C)(F)F)cn1` [Example 23, 3-(5-{[(1R,2S)-2-[(2,2-difluoropropanoyl)amino]-1-(6-methoxypyridin-3-yl)propyl]oxy}-1H-indazol-1-yl)-N-(pyridin-3-yl)benzamide], the IC50 was determined as 0.86 nM. Compared with the last molecule, the IC50 is about 2.7-fold lower.

As for `CCC(O)CNC(=O)c1cccc(-n2ncc3cc(O[C@H](c4ccc(OC)nc4)[C@H](C)NC(=O)C(C)(F)F)ccc32)c1` (stereo partly drawn) [Example 26, 3-(5-{[(1R,2S)-2-[(2,2-difluoropropanoyl)amino]-1-(6-methoxypyridin-3-yl)propyl]oxy}-1H-indazol-1-yl)-N-(2-hydroxybutyl)benzamide], the IC50 was 4.13 nM.

For `C[C@H](NC(=O)C(C)(F)F)[C@H](Oc1ccc2c(cnn2-c2cccc(C(=O)N3CCC[C@@H]3CO)c2)c1)c1ccccc1` [Example 8, 2,2-Difluoro-N-[(1S,2R)-2-{[1-(3-{[(2R)-2-(hydroxymethyl)pyrrolidin-1-yl]carbonyl}phenyl)-1H-indazol-5-yl]oxy}-1-methyl-2-phenylethyl]propanamide], the IC50 came out at 6.88 nM.

For `C[C@H](NC(=O)C(C)(F)F)[C@H](Oc1ccc2c(cnn2-c2cccc(C(=O)NCC(N)=O)c2)c1)c1ccccc1` [Example 4, N-(2-amino-2-oxoethyl)-3-[5-({(1R,2S)-2-[(2,2-difluoropropanoyl)amino]-1-phenylpropyl}oxy)-1H-indazol-1-yl]benzamide], the IC50 was 1.61 nM.

The molecule `CC(=O)NCCNC(=O)c1cccc(-n2ncc3cc(O[C@H](c4ccccc4)[C@H](C)NC(=O)C(C)(F)F)ccc32)c1` [Example 6, N-[2-(acetylamino)ethyl]-3-[5-({(1R,2S)-2-[(2,2-difluoropropanoyl)amino]-1-phenylpropyl}oxy)-1H-indazol-1-yl]benzamide] had an IC50 of 5.06 nM.

`C[C@H](NC(=O)C(C)(F)F)[C@H](Oc1ccc2c(cnn2-c2cccc(C(=O)NCc3n[nH]c4ccccc34)c2)c1)c1ccccc1` [Example 16, 3-[5-({(1R,2S)-2-[(2,2-difluoropropanoyl)amino]-1-phenylpropyl}oxy)-1H-indazol-1-yl]-N-(1H-indazol-3-ylmethyl)benzamide]: the IC50 was determined as 42.4 nM.

On to `C[C@H](NC(=O)c1cccc(-n2ncc3cc(O[C@H](c4ccccc4)[C@H](C)NC(=O)C(C)(F)F)ccc32)c1)C(N)=O` [Example 5, N-[(1S)-2-amino-1-methyl-2-oxoethyl]-3-[5-({(1R,2S)-2-[(2,2-difluoropropanoyl)amino]-1-phenylpropyl}oxy)-1H-indazol-1-yl]benzamide], for which the IC50 was 1.93 nM.

Turning to `COc1ccc([C@@H](Oc2ccc3c(cnn3-c3cccc(C(=O)NC4CCOC4)c3)c2)[C@H](C)NC(=O)C(C)(F)F)cn1` (stereo partly drawn) [Example 25, 3-(5-{[(1R,2S)-2-[(2,2-difluoropropanoyl)amino]-1-(6-methoxypyridin-3-yl)propyl]oxy}-1H-indazol-1-yl)-N-(tetrahydrofuran-3-yl)benzamide], the IC50 came out at 2.99 nM.

`C[C@H](NC(=O)C(N)=O)[C@H](Oc1ccc2c(cnn2-c2cccc(C(=O)N3CCC[C@@H]3C(N)=O)c2)c1)c1ccccc1` [Example 2, N-[(1S,2R)-2-{[1-(3-{[(2R)-2-carbamoylpyrrolidin-1-yl]carbonyl}phenyl)-1H-indazol-5-yl]oxy}-1-methyl-2-phenylethyl]ethanediamide]: the IC50 was determined as 19.9 nM.

Consider `C[C@H](NC(=O)C(C)(F)F)[C@H](Oc1ccc2c(cnn2-c2cccc(C(=O)N[C@@H](C(N)=O)c3ccccc3)c2)c1)c1ccccc1` [Example 17, N-[(1R)-2-amino-2-oxo-1-phenylethyl]-3-[5-({(1R,2S)-2-[(2,2-difluoropropanoyl)amino]-1phenylpropyl}oxy)-1H-indazol-1-yl]benzamide], for which the IC50 is 3.55 nM.

`C[C@H](NC(=O)C(C)(F)F)[C@H](Oc1ccc2c(cnn2-c2cccc(C(=O)N(C)CC(N)=O)c2)c1)c1ccccc1` [Example 18]: the IC50 amounted to 4.22 nM.

In the case of `COc1ccc([C@@H](Oc2ccc3c(cnn3-c3cccc(C(=O)NC4CCS(=O)(=O)C4)c3)c2)[C@H](C)NC(=O)C(C)(F)F)cn1` (stereo partly drawn) [Example 24, 3-(5-{[(1R,2S)-2-[(2,2-difluoropropanoyl)amino]-1-(6-methoxypyridin-3-yl)propyl]oxy}-1H-indazol-1-yl)-N-(1,1-dioxidotetrahydrothiophen-3-yl)benzamide], the IC50 was 4.46 nM.

The values above are taken from US20100080786A1, “Phenyl or Pyridinyl Substituted Indazoles Derivatives” (priority 2008, published 2010).
